Assay results as given in patent US20220401415A1, “METHODS FOR TREATING NEUROLOGICAL DISORDERS WITH ALPHA1A-AR PARTIAL AGONISTS” (Curasen Therapeutics, Inc., priority 2019, published 2022).
Like-named read-outs stand apart in the source and are kept apart here.

Assays:
α1A-AR receptor [1] = target: T1, α1A-AR receptor (Homo sapiens, UniProt P35348); conditions: as compared to noradrenaline; FLIPR assay; Blue et al., Table 1; cited from earlier work
T1 sequence (P35348 1-466): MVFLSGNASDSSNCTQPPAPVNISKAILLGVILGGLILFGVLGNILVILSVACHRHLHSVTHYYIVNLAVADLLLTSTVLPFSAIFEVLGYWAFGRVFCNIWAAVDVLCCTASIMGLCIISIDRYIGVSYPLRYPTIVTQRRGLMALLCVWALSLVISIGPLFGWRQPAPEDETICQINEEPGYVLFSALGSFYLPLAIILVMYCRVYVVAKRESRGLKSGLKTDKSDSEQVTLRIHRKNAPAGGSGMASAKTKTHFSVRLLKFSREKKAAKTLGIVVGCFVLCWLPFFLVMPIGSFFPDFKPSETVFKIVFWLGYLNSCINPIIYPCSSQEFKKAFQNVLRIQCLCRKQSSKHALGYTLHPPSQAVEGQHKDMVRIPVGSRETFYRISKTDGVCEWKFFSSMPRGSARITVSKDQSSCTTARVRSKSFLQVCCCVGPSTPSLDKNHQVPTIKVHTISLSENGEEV

α1A-AR receptor [2] = target: T1, α1A-AR receptor; conditions: as compared to noradrenaline; InsPs accumulation assay; Blue et al., Table 1; cited from earlier work
[3] = tested on: neurogenic orthostatic hypotension (nOH) patients; assay: Treatment of patients having nOH (Example 1); type: in vivo, human; conditions: 5 mg oral tablets twice daily, follow-up after one week of treatment
Protocol: Patients between the age of 40 and 80 years old that have been diagnosed with symptomatic orthostatic hypotension due to pure autonomic failure, multiple system atrophy or Parkinson's disease (i.e., PD plus symptoms) present for treatment. At the time of presentation, autonomic function testing is conducted to confirm the diagnosis of autonomic dysfunction including sinus arrhythmia and the Valsalva maneuver.
The patients are given 5 mg dabuzalgron oral tablets and are instructed to take one tablet shortly after waking up in the morning and a second tablet 4-6 hours later each day.
Some patients return for a follow-up visit after one week of treatment. […] In the follow-up visit supine systolic blood pressure (SSBP) may be determined.

SMILES | intrinsic activity (α1A-AR receptor [1]) | intrinsic activity (α1A-AR receptor [2]) | symptoms of nOH as compared to the first visit [3]
Cc1c(OCC2=NCCN2)ccc(Cl)c1NS(C)(=O)=O.Cl [RO 115-1240 (dabuzalgron) HCl salt, N-[6-chloro-3-(4,5-dihydro-1H-imidazol-2-ylmethoxy)-2-methylphenyl]methanesulfonamide hydrochloride] | 0.51 | 0.27 | –
Cc1c(OCC2=NCCN2)ccc(Cl)c1NS(C)(=O)=O [RO 115-1240 (dabuzalgron) free base, N-[6-chloro-3-(4,5-dihydro-1H-imidazol-2-ylmethoxy)-2-methylphenyl]methanesulfonamide] | – | 0.31 | symptoms of nOH improve
